Test results from patent publication US8496942B2, “Therapeutic peptides and uses thereof” (priority 2006, dated 2013).
Where a SMILES comes first, the peptide text is derived from it.

B1: Interferon-gamma: interferon-gamma, positive control (protein, UniProt P01579 24-161, looked up)
Interferon gamma: QDPYVKEAENLKKYFNAGHSDVADNGTLFLGILKNWKEESDRKIMQSQIVSFYFKLFKNFKDDQSIQKSVETIKEDMNVKFFNSNKKKRDDFEKLTNYSVTDLNVQRKAIHELIQVMAELSPAAKTGKRKRSQMLFRG

Legend:
PBMC cultures = conditions: 72 hr, 1 mM, FIG. 15
PBMCs = test: Induction of cytokine release from PBMCs (membrane antibody array); assay type: cell-based, human; conditions: PBMC medium, 4 hr, 100 nM peptide; for Relative concentration of IL-21: IFN-γ printed in place of LPS
Method: To determine whether inhibition of HIV replication by the peptide may be the result of induction of release of cytokines, cultured PBMCs were treated with one peptide embodiment of the present invention and, after 4 hr incubation, the medium was collected and assayed for changes in the amounts of 40 different cytokines. […] Approximately 3 million cells of frozen human PBMCs were thawed at 37° C. and transferred to a 50 mL conical tube where 8 mL of wash medium were added slowly. Then an additional 8 mL of wash medium were added and swirled to mix. The cells were then centrifuged at 330 g for 10 min, the supernatant was removed and the pellet was resuspended in 10 mL wash medium and centrifuged as above. The washed cells were then resuspended in RPMI-1640 medium containing 10% FBS to about 6 million cells per mL and 100 μL of the suspension were added into each well of a 96-well microtiter plate and incubated overnight at 37° C. in humidified 5% CO2. After 24 hr the medium was replaced with 200 μL fresh RPMI-1640 medium containing 10% FBS and incubated at 37° C. in humidified 5% CO2 for 2 days. For the data shown in TABLE 4, the peptide aliquot was then added to samples in duplicate at a final concentration of 100 nM and incubated at 37° C. in humidified 5% CO2 for 4 hr. For other experiments (data not included), the incubation was continued for 24 hr. The medium was then removed and stored at −80° C. The samples were analyzed for production of cytokines One set of control cells was not treated with an experimental agent.
Culture medium was removed for assay of cytokine levels with methods developed by RayBiotech, Inc. (Norcross, Ga.). In this technology, membrane arrays of antibodies against cytokines were incubated with samples of media. After washing, the array was incubated with a cocktail of all antibodies tagged with biotin. The membrane was then washed free of unbound antibodies and incubated with streptavidin labeled with a fluorescent dye. After a final wash, the membrane arrays were read in a fluorescence detector.

[1] = system: HIV-1 clade B (Strain SF162) and clade C (Strain 97ZA009); test: Inhibition of HIV replication (neutralization) in PBMCs, p24 immunoassay; assay type: cell-based; conditions: 10 nM, FIGS. 13A-B
Method: The ability of the peptides to inhibit replication of HIV, both alone and in combination with antibodies, was tested as follows. Approximately 3 million cells of frozen human PBMCs, obtained from the California Blood Bank system, were thawed at 37° C. and transferred to a 50 mL conical tube where 8 mL of wash medium were added slowly. Then an additional 8 mL of wash medium were added and swirled to mix. The cells were then centrifuged at 330 g for 10 min, the supernatant was removed and the pellet was resuspended in 10 mL wash medium and centrifuged as above. The washed cells were then resuspended in RPMI-B medium containing 10% FBS, phytohemagglutin was added to 5 μg/mL, and cells were incubated at 37° C. for 24 hr in humidified 5% CO2. Cells were washed, suspended to about 6 million cells per mL, and 50 μL, (about 250,000 viable cells) were added to each test well. Then 100 ↑L of the test peptide were added at a concentration sufficient to provide the desired final concentration, followed by 100 μL of virus suspension (100 median tissue culture infective doses (TCID50s)). The assay plate was incubated 3 days at 37° C., then washed 3 times to remove unbound virus, and the cells were again suspended to 250 μL of medium. After an additional 24 hr of incubation, cells were lysed with Triton X-100 and each sample was assayed by an enzyme-linked immunoassay for virus protein p24 to quantify neutralization of virus. In another set of samples, antibody preparations were also added at a desired concentration (i.e., in addition to peptide).
This peptide construct was assayed for activity with two strains of HIV, clade B (Strain SF162) and clade C (Strain 97ZA009), both of which were provided by the California Department of Public Health (Richmond, Calif.). HIV-1 clade B is the major strain in North America and HIV-1 clade C is the major strain in central and southern Africa, India and China. The peptide was assayed either alone (−) or in combination with serum from HIV-infected individuals (+), as outlined below in TABLE 3.
(SEQ ID NO:7). The short bars represent neutralization by peptide alone. The long bars represent neutralization when pooled serum from HIV-positive patients was added along with the peptide. The bars represent averages from two experiments, each performed in quadruplicate. In one set of experiments, each peptide was assayed at 10 nM for the ability to inhibit replication. In the absence of peptide, the antibody preparation (serum) provided only about 30% neutralization (inhibition), at the same dilution (data not shown).

[2] = system: macrophages in PBMC cultures; test: Phagocytosis of microspheres opsonized with anti-HIV antibodies; assay type: cell-based, human
Method: The ability of the peptide constructs to stimulate phagocytosis was assessed in two experiments. In the first experiment, a biotin-tagged peptide epitope of a surface protein of HIV-1 was bound to streptvidin on the surface of the beads. An antibody preparation that was raised against this epitope was then bound to the HIV peptide. The beads were then washed and presented to peripheral blood mononuclear cell (PBMC) cultures pretreated with peptides. […] In multiple control cultures, the number of beads within a macrophage-like cell ranged from 0 to 3. […] In the treated cultures, greater than 20 beads were counted in each phagocytic cell. After several subsequent and similar experiments were conducted, a phagocytic index was developed for the activity of macrophages to ingest microspheres opsonized with anti-HIV antibodies (TABLE 1).

[3] = system: peripheral blood mononuclear cells; test: Phagocytosis of opsonized microspheres by peptide-treated PBMCs (second experiment); assay type: cell-based, human; conditions: 50 nM peptide construct; interferon-gamma 100 ng/mL
Method: In a second experiment, streptavidin-coated microspheres, dyed with Dragon Green (0.97 μm diameter, Bangs Laboratories, Inc., Fishers, Ind.) were opsonized with rabbit anti-streptavidin serum (Sigma-Aldrich) and washed with phosphate buffered saline, pH 7.4 (PBS). Human PBMCs were cultured in microtiter plates in RPMI-1640 medium containing 10% fetal bovine serum (FBS) and 1:100 dilution of penicillin-streptomycin solution (Mediatech, Inc., Herndon, Va.) Cultures were washed to remove non-adherent cells, and fresh medium containing FBS, antibiotics, and 50 nM peptide was added to adherent cells for an additional 20 to 24 h. Microspheres were added at approximately a 10:1 ratio to total cells, and after an additional 30 to 60 min of incubation, a solution containing 2% formalin was added. […]
FIGS. 9A-I illustrate phagocytosis of opsonized microspheres by peptide-treated PBMCs. […] The experiment was quantified by counting the number of beads in the phagocytic cells (TABLE 2).
In order to establish that the bead-like material within the cells was indeed engulfed beads, fluorescence was examined. […] Cells were examined by both phase contrast microscopy (left panels) and fluorescence microscopy with blue excitation light (right panels). […]

[4] = system: lectins (HP, GS, WGA, DB, UEA1, SNA1, MAA, concanavalin A); test: Lectin binding, panel of lectins (valency and specificity); conditions: seven lectins, equal number of HPSLK sequences per well, FIG. 4
From the text: Each assay used the same basic procedure.
FIG. 6 illustrates the specificity with which the quadravalent peptide constructs bind to different lectins.

Molecule	Relative concentration of IL-12p40 (PBMCs) [arbitrary units]	Relative concentration of IL-15 (PBMCs) [arbitrary units]	Relative concentration of IL-16 (PBMCs) [arbitrary units]	Relative concentration of IL-17 (PBMCs) [arbitrary units]	Relative concentration of sTNF RII (PBMCs) [arbitrary units]	Relative concentration of IL-21 (PBMCs)	inhibitory activity when assayed alone [1]	level of inhibition with antibodies added [1]	Phagocytosis Index [2]	Beads/cell (mean ± SD) [3]	also measured
CC(C)C[C@H](NC(=O)[C@H](CO)NC(=O)[C@@H]1CCCN1C(=O)[C@@H](N)Cc1c[nH]cn1)C(=O)N[C@@H](CCCCN)C(=O)NCC(=O)NCC(=O)NCC(=O)N[C@@H](CO)C(=O)NCCCC[C@H](NC(=O)[C@H](CO)NC(=O)CNC(=O)CNC(=O)CNC(=O)[C@H](CCCCN)NC(=O)[C@H](CC(C)C)NC(=O)[C@H](CO)NC(=O)[C@@H]1CCCN1C(=O)[C@@H](N)Cc1c[nH]cn1)C(=O)NCCCC[C@H](NC(=O)[C@H](CCCCNC(=O)[C@H](CO)NC(=O)CNC(=O)CNC(=O)CNC(=O)[C@H](CCCCN)NC(=O)[C@H](CC(C)C)NC(=O)[C@H](CO)NC(=O)[C@@H]1CCCN1C(=O)[C@@H](N)Cc1c[nH]cn1)NC(=O)[C@H](CO)NC(=O)CNC(=O)CNC(=O)CNC(=O)[C@H](CCCCN)NC(=O)[C@H](CC(C)C)NC(=O)[C@H](CO)NC(=O)[C@@H]1CCCN1C(=O)[C@@H](N)Cc1c[nH]cn1)C(N)=O [HPSLK] (HELM PEPTIDE1{H.P.S.L.K.G.G.G.S.K.K.[am]}|PEPTIDE2{H.P.S.L.K.G.G.G.S.K}|PEPTIDE3{H.P.S.L.K.G.G.G.S}|PEPTIDE4{H.P.S.L.K.G.G.G.S}$PEPTIDE1,PEPTIDE4,10:R3-9:R2|PEPTIDE1,PEPTIDE2,11:R3-10:R2|PEPTIDE2,PEPTIDE3,10:R3-9:R2$$$V2.0)	–	–	–	–	–	–	–	–	–	–	viability of cells in PBMC cultures (PBMC cultures): partially reduced viability
PSSNA: peptide construct containing four copies of the core sequence PSSNA	28	153	12	21	21	130 arbitrary units	substantial inhibitory activity	enhanced by adding antibodies	+++ (+++ = 15)	–	Relative concentration of IL-4 (PBMCs): 60 arbitrary units; Relative concentration of IL-8 (PBMCs): 702 arbitrary units; Relative concentration of IL-12p70 (PBMCs): 69 arbitrary units; Relative concentration of TNF-α (PBMCs): 123 arbitrary units
VGGGS: peptide construct containing four copies of the core sequence VGGGS	51	130	10	24	26	–	substantial inhibitory activity	enhanced by adding antibodies	+++ (+++ = 15)	–	Relative concentration of ICAM-1 (PBMCs): 89 arbitrary units; Relative concentration of IL-1α (PBMCs): 291 arbitrary units; Relative concentration of IL-2 (PBMCs): 125 arbitrary units; Relative concentration of IP-10 (PBMCs): 321 arbitrary units; Relative concentration of RANTES (PBMCs): 213 arbitrary units; Relative concentration of TIMP-2 (PBMCs): 205 arbitrary units; Relative concentration of TNF-β (PBMCs): 111 arbitrary units
VSNQH: peptide construct containing four copies of an inactive core sequence VSNQH, negative control (VNSQH) [reference compound]	–	–	–	–	–	–	–	–	–	1.3 ± 1.8	–
single sequence: peptide with 1 arm containing the core sequence HPSLK	–	–	–	–	–	–	–	–	–	–	binding relative to the quadravalent peptide (set as 100%) [4]: much lesser extent
B1	–	–	–	–	–	(IFN-γ: 100) arbitrary units	–	–	+++ (+++ = 15)	35.8 ± 12.6	–
